From patent US4521335A, “Aglycone and pseudo-aglycones of the AAD 216 antibiotics” (SmithKline Beckman Corporation, priority 1984, dated 1985)
Values after ≈ are worked out from the molar mass of the structure shown.

Tests used:
[1] = test system: Staph. aureus SK & F 2591; assay: MIC, standard microtiter assay; type: cell-based; details: Staphylococcus aureus
Staph. aureus SK & F 675 = assay: MIC, standard microtiter assay; type: cell-based; details: Staphylococcus aureus
[2] = test system: Staph. aureus SK & F 2596; assay: MIC, standard microtiter assay; type: cell-based; details: Staphylococcus aureus
[3] = test system: Clostridium difficile SK & F 3062; assay: MIC, standard microtiter assay; type: cell-based; details: Clostridioides difficile
[4] = test system: Staph. aureus SK & F 2612; assay: MIC, standard microtiter assay; type: cell-based; details: Staphylococcus aureus
C. difficile SK & F 3092 = assay: MIC, standard microtiter assay; type: cell-based; details: Clostridioides difficile
[5] = test system: Staph. aureus SK & F 2592; assay: MIC, standard microtiter assay; type: cell-based; details: Staphylococcus aureus
[6] = test system: Staph. aureus SK & F 2682; assay: MIC, standard microtiter assay; type: cell-based; details: Staphylococcus aureus
[7] = test system: k. pneumoniae 4200 (SK & F 798); assay: MIC, standard microtiter assay; type: cell-based; details: Klebsiella pneumoniae
[8] = test system: Staph. aureus SK & F 2593; assay: MIC, standard microtiter assay; type: cell-based; details: Staphylococcus aureus
Staph. aureus SK & F 674 = assay: MIC, standard microtiter assay; type: cell-based; details: Staphylococcus aureus
C. difficile SK & F 3065 = assay: MIC, standard microtiter assay; type: cell-based; details: Clostridioides difficile
C. difficile SK & F 3091 = assay: MIC, standard microtiter assay; type: cell-based; details: Clostridioides difficile
[9] = test system: Staph. aureus SK & F 2595; assay: MIC, standard microtiter assay; type: cell-based; details: Staphylococcus aureus
[10] = test system: Bacteroides Fragilis ATCC; assay: MIC, standard microtiter assay; type: cell-based
[11] = test system: Bacteroides fragilis ATCC 25285; assay: MIC, standard microtiter assay; type: cell-based; details: ATCC25285
Staph. aureus SK & F 910 = assay: MIC, standard microtiter assay; type: cell-based
[12] = test system: Staph. aureus SK & F 209P; assay: MIC, standard microtiter assay; type: cell-based; details: Staphylococcus aureus
[13] = test system: Staph. aureus SK & F 2597; assay: MIC, standard microtiter assay; type: cell-based; details: Staphylococcus aureus
B. thetaiotomicron H-145 = assay: MIC, standard microtiter assay; type: cell-based
C. difficile SK & F 3096 = assay: MIC, standard microtiter assay; type: cell-based; details: Clostridioides difficile
Strep. faecilis HH34358 = assay: MIC, standard microtiter assay; type: cell-based
[14] = test system: Staph. epidermidis SK & F 651; assay: MIC, standard microtiter assay; type: cell-based; details: Staphylococcus epidermidis
Staph. aureus HH127 = assay: MIC, standard microtiter assay; type: cell-based
[15] = test system: Proteus morgani SK & F 179; assay: MIC, standard microtiter assay; type: cell-based
[16] = test system: inoculum (rumen cannula filtrate); assay: rumen in vitro model, growth promotant activity; details: experiment III; for GLU (% Control): glucose; for LYS (% Control): lysine; for Propionate % (% Control): propionate as percentage of total VFA; for VFA (% Control): total volatile fatty acids
[17] = test system: Staph. aureus SK & F 2680; assay: MIC, standard microtiter assay; type: cell-based; details: Staphylococcus aureus
[18] = test system: Staph. epidermidis SK & F 2265; assay: MIC, standard microtiter assay; type: cell-based; details: Staphylococcus epidermidis
[19] = test system: Staph. epidermidis SK & F 2479; assay: MIC, standard microtiter assay; type: cell-based; details: Staphylococcus epidermidis
[20] = test system: Strep. faecalis SK & F 657; assay: MIC, standard microtiter assay; type: cell-based; details: Enterococcus faecalis
Providencia SK & F 276 = assay: MIC, standard microtiter assay; type: cell-based
[21] = test system: Staph. aureus SK & F 2620; assay: MIC, standard microtiter assay; type: cell-based; details: Staphylococcus aureus
[22] = test system: E. coli 12140 (SK & F 809); assay: MIC, standard microtiter assay; type: cell-based; details: Escherichia coli
[23] = test system: Staph. aureus SK & F 209P-mutant; assay: microbe, parasite or virus in culture; type: cell-based; details: Staphylococcus aureus
[24] = test system: Staph. aureus SK & F 2621; assay: MIC, standard microtiter assay; type: cell-based; details: Staphylococcus aureus
[25] = test system: Serratia marcesens ATCC 13880; assay: MIC, standard microtiter assay; type: cell-based; details: ATCC13880
[26] = test system: Proteus mirabilis SK & F 444; assay: MIC, standard microtiter assay; type: cell-based
B. loeochis SK & F 3087 = assay: MIC, standard microtiter assay; type: cell-based; details: Table D, Anaerobes
Excerpt: The AAD 216 aglycone, the AAD 216 pseudo-aglycone, the AAD 216A pseudo-aglycone, the AAD 216B pseudo-aglycone and the AAD 216C pseudo-aglycone were neutralized with sodium bicarbonate prior to testing.

[27] = test system: Staph. aureus SK & F 2777; assay: MIC, standard microtiter assay; type: cell-based; details: Staphylococcus aureus

CN[C@H](CC(C)C)C(=O)N[C@H]1C(=O)N[C@@H](CC(N)=O)C(=O)N[C@H]2C(=O)N[C@H]3C(=O)N[C@H](C(=O)N[C@H](C(=O)O)c4cc(O)cc(O)c4-c4cc3ccc4O)[C@H](O)c3ccc(c(Cl)c3)Oc3cc2cc(c3O[C@@H]2O[C@H](CO)[C@@H](O)[C@H](O)[C@H]2O[C@H]2C[C@](C)(N)[C@H](O)[C@H](C)O2)Oc2ccc(cc2Cl)[C@H]1O [Vancomycin, vancomycin]
MIC [1]: 1.6 µg/mL (≈ 1.1 µM)
MIC (Staph. aureus SK & F 675; Table C, Methicillin Resistant): 1.6 µg/mL (≈ 1.1 µM)
MIC (Staph. aureus SK & F 675; Table E): 3.1 µg/mL (≈ 2.14 µM)
MIC [2]: 3.1 µg/mL (≈ 2.14 µM)
MIC ([3]; Table D, Anaerobes, Clostridium difficile SK & F 3062): 2 µg/mL (≈ 1.38 µM)
MIC ([3]; Table F, C. difficile SK & F 3062): 0.5 µg/mL (≈ 0.345 µM)
MIC [4]: 1.6 µg/mL (≈ 1.1 µM)
MIC (C. difficile SK & F 3092; Table D, Anaerobes): 2 µg/mL (≈ 1.38 µM)
MIC (C. difficile SK & F 3092; Table F): 0.5 µg/mL (≈ 0.345 µM)
MIC [5]: 3.1 µg/mL (≈ 2.14 µM)
MIC [6]: 1.6 µg/mL (≈ 1.1 µM)
MIC [7]: > 100 µg/mL
MIC [8]: 1.6 µg/mL (≈ 1.1 µM)
MIC (Staph. aureus SK & F 674): 1.6 µg/mL (≈ 1.1 µM)
MIC (C. difficile SK & F 3065; Table D, Anaerobes): 4 µg/mL (≈ 2.76 µM)
MIC (C. difficile SK & F 3065; Table F): 1 µg/mL (≈ 0.69 µM)
MIC (C. difficile SK & F 3091): 2 µg/mL (≈ 1.38 µM)
MIC [9]: 1.6 µg/mL (≈ 1.1 µM)
MIC [10]: > 32 µg/mL
MIC [11]: 32 µg/mL (≈ 22.1 µM)
MIC (Staph. aureus SK & F 910; Staphylococcus aureus): 1.6 µg/mL (≈ 1.1 µM)
MIC (Staph. aureus SK & F 910; Table A, Staph. aureus SK & F 910): 1.6 µg/mL (≈ 1.1 µM)
MIC (Staph. aureus SK & F 910; Table E, Staph. aureus SK & F 910): 1.6 µg/mL (≈ 1.1 µM)
MIC [12]: 1.6 µg/mL (≈ 1.1 µM)
MIC [13]: 3.1 µg/mL (≈ 2.14 µM)
MIC (B. thetaiotomicron H-145): > 32 µg/mL
MIC (C. difficile SK & F 3096): 2 µg/mL (≈ 1.38 µM)
MIC (Strep. faecilis HH34358): 3.1 µg/mL (≈ 2.14 µM)
MIC ([14]; Table A, Staph. epidermidis SK & F 651): 1.6 µg/mL (≈ 1.1 µM)
MIC ([14]; Table E, Staph. epidermidis SK & F 651, first entry): 3.1 µg/mL (≈ 2.14 µM)
MIC ([14]; Table E, Staph. epidermidis SK & F 651, second entry): 3.1 µg/mL (≈ 2.14 µM)
MIC (Staph. aureus HH127; Staphylococcus aureus, HH127): 1.6 µg/mL (≈ 1.1 µM)
MIC (Staph. aureus HH127; Table A, Staph. aureus HH127): 1.6 µg/mL (≈ 1.1 µM)
MIC (Staph. aureus HH127; Table E, Staph. aureus HH127): 1.6 µg/mL (≈ 1.1 µM)
MIC [15]: > 100 µg/mL
GLU (% Control) ([16]; 0.5 ppm): 17 % Control
LYS (% Control) ([16]; 0.5 ppm): 83 % Control
Propionate % (% Control) ([16]; 0.5 ppm): 105 % Control
VFA (% Control) ([16]; 0.5 ppm): 97 % Control
GLU (% Control) ([16]; 5.0 ppm): 165 % Control
LYS (% Control) ([16]; 5.0 ppm): 85 % Control
Propionate % (% Control) ([16]; 5.0 ppm): 130 % Control
VFA (% Control) ([16]; 5.0 ppm): 108 % Control
GLU (% Control) ([16]; 50.0 ppm): 189 % Control
LYS (% Control) ([16]; 50.0 ppm): 97 % Control
Propionate % (% Control) ([16]; 50.0 ppm): 127 % Control
VFA (% Control) ([16]; 50.0 ppm): 107 % Control
MIC [17]: 1.6 µg/mL (≈ 1.1 µM)
MIC [18]: 3.1 µg/mL (≈ 2.14 µM)
MIC ([19]; Table A): 1.6 µg/mL (≈ 1.1 µM)
MIC ([19]; Table E): 3.1 µg/mL (≈ 2.14 µM)
MIC [20]: 3.1 µg/mL (≈ 2.14 µM)
MIC (Providencia SK & F 276): > 100 µg/mL
MIC [21]: 3.1 µg/mL (≈ 2.14 µM)
MIC [22]: 100 µg/mL (≈ 69 µM)
MIC [23]: 100 µg/mL (≈ 69 µM)
MIC [24]: 1.6 µg/mL (≈ 1.1 µM)
MIC [25]: > 100 µg/mL
MIC [26]: 100 µg/mL (≈ 69 µM)
MIC (B. loeochis SK & F 3087): 32 µg/mL (≈ 22.1 µM)
MIC [27]: 0.8 µg/mL (≈ 0.552 µM)
